From patent US20260034094A1, “COMPOSITIONS AND METHODS FOR INDUCING FERROPTOSIS” (Kojin Therapeutics, Inc., priority 2022, published 2026) come the findings set out here.

Where only a bound is given, the exact number is not on record here.

One experiment concerns RKN cells. Kind of experiment: RKN cell profiling assay (cell viability, CellTiter-Glo). The settings on record: 96 h, 96 h exposure, read-out: Cell Killing EC50. It is filed as cell-based. The method in brief:
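Cells seeded at 1,000/well in F-12 with 10% FBS, left to adhere 24 h, then compound-treated for 96 h at 0.5% final DMSO. Viability by CellTiter-Glo luminescence; EC50 from four-parameter logistic fit. Ferroptosis rescue runs included 1.5 μM ferrostatin-1 added at seeding.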
(In ATP-based viability assays light output follows the ATP content of the culture.)

In a further experiment the target is human recombinant GCL (Homo sapiens (Human), UniProt P48506). Kind of experiment: GCL enzyme profiling assay (ADP-Glo luminescence). It is filed as biochemical. The conditions noted are these: human recombinant GCL 5 nM, 1 h preincubation with ATP; read-out: GCL IC50. As to the method:
The GCL enzyme assay was run in 50 mM HEPES, pH 7.5, containing 150 mM NaCl, 30 mM MgCl2, 0.5 mM EDTA, 1 mM DTT, 0.1 mg/mL BSA, and 0.02% or in the present case 0.2% F-127 in a total assay volume of 10 μL or 10 mL. Compound in pure DMSO was stamped in assay plates (Greiner black 384-well) or appropriate containers using a D300e digital dispenser (TECAN) and the final DMSO concentration was normalized to 1%. A 5 mL, or in the present case, 5 μL mixture of human recombinant GCL (final concentration: 5 nM) and ATP (final concentration: 0.6 mM) was added and the solution was incubated at room temperature (22° C.) for 1 h. The GCL enzyme reaction was initiated by addition of a 5 μL mixture of mono g-glutamate or in the present example, monosodium glutamate (final concentration: 1 mM) and a-aminobutyrate or α-aminobutyrate (final concentration: 1.2 mM). The reaction was stopped after 1 h or in the present case, 2 h by addition of 5 mL, or in the present case, 5 μL ADP GLO Reagent (Promega). The resulting solution was incubated for 2 h at room temperature. This was then followed by addition of 5 mL, or in the present case, 5 μL ADP GLO Detection. After incubation at room temperature for 30 min, the plates were read on a plate reader (PheraStar) using a luminescence protocol to quantify the GCL enzyme activity from each reaction solution. The data was analyzed using a four-parameter logistic equation to calculate IC50.

The term EC50 denotes the concentration needed to bring the measured effect to its halfway point. For orientation: IC50 means the concentration that inhibits the measured activity by half.

Sequence of human recombinant GCL (P48506 whole entry): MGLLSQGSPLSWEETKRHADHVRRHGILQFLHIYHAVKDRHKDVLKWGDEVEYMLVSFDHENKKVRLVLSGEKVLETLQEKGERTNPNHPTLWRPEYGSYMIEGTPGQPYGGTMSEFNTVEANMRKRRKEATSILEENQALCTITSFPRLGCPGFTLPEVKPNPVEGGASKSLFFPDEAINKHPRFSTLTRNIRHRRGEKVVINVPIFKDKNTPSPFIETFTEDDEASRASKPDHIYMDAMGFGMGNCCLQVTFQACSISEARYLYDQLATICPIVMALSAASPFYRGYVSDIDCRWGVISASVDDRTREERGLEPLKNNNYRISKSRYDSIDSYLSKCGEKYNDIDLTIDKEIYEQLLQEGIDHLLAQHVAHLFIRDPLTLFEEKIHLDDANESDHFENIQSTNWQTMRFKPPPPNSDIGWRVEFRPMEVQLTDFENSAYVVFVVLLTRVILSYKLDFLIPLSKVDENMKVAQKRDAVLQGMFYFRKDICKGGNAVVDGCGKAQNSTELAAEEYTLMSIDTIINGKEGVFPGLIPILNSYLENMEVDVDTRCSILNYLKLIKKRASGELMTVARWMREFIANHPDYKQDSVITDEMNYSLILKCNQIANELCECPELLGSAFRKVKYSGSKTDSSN

Turning to `N=S(=O)(CCc1cccc2ccccc12)CC[C@H](N)C(=O)O` (some centres unmarked) [Compound 31], the EC50 in the experiment with RKN cells is at least 1000 µM. The IC50 on human recombinant GCL is at most 20 µM.

In the case of `Cc1cccc(C)c1CCS(=N)(=O)CC[C@H](N)C(=O)O` (some centres unmarked) [Compound 32], in the experiment with RKN cells, the EC50 is at least 1000 µM. On human recombinant GCL, the concentration for half-maximal inhibition (IC50) is 20 to 2000 µM.

On to `CCc1ccccc1CCS(=N)(=O)CC[C@H](N)C(=O)O` (some centres unmarked) [Compound 33], for which, in the experiment on RKN cells, the EC50 is at least 1000 µM. Moreover, the IC50 on human recombinant GCL was at most 20 µM.

As to `N=S(=O)(CCc1ccccc1C1CC1)CC[C@H](N)C(=O)O` (some centres unmarked) [Compound 34], the EC50 in the experiment on RKN cells is at least 1000 µM. For the same compound, at human recombinant GCL, the IC50 is 20 to 2000 µM.

On to `Cc1noc(C)c1CCS(=N)(=O)CC[C@H](N)C(=O)O` (some centres unmarked) [Compound 35], for which, in the experiment on RKN cells, the EC50 was at least 1000 µM. Moreover, the IC50 on human recombinant GCL fell in the range of 20 to 2000 µM.

On to `N=S(=O)(CCc1ccc(C(F)(F)F)cc1C(F)(F)F)CC[C@H](N)C(=O)O` (some centres unmarked) [Compound 36], for which, in the experiment with RKN cells, the EC50 is below 1000 µM. The IC50 on human recombinant GCL was at most 20 µM.

As to `Cc1ccc(CCS(=N)(=O)CC[C@H](N)C(=O)O)c(F)c1` (some centres unmarked) [Compound 37], the EC50 in the experiment on RKN cells is at least 1000 µM. In addition, on human recombinant GCL, the IC50 is at most 20 µM.

Regarding `CC(CS(=N)(=O)CC[C@H](N)C(=O)O)c1ccccc1Cl` (some centres unmarked) [Compound 38], the concentration giving a half-maximal response (EC50) with RKN cells is at least 1000 µM. The IC50 on human recombinant GCL lay in the range of 20 to 2000 µM.

Turning to `Cc1ccc(Cl)c(CCS(=N)(=O)CC[C@H](N)C(=O)O)c1` (some centres unmarked) [Compound 39], the EC50 in the experiment on RKN cells is at least 1000 µM. In addition, at human recombinant GCL, the IC50 is at most 20 µM.

On to `Cc1ccc(C(=O)O)cc1CCS(=N)(=O)CC[C@H](N)C(=O)O` (some centres unmarked) [Compound 41], for which, in the experiment with RKN cells, the EC50 was at least 1000 µM. Besides, the IC50 on human recombinant GCL was in the range of 20 to 2000 µM.

As for `Cc1cccc(Cl)c1CCS(=N)(=O)CC[C@H](N)C(=O)O` (some centres unmarked) [Compound 42], the half-maximal effective concentration (EC50) in the experiment with RKN cells is at least 1000 µM. For the same compound, the IC50 on human recombinant GCL fell in the range of 20 to 2000 µM.

As for `Cc1ccc(CCS(=N)(=O)CC[C@H](N)C(=O)O)c(Cl)c1` (some centres unmarked) [Compound 43], the EC50 in the experiment with RKN cells is at least 1000 µM. Moreover, the 50% inhibitory concentration (IC50) on human recombinant GCL is at most 20 µM.

In the case of `Cc1ccc(C(F)(F)F)c(CCS(=N)(=O)CC[C@H](N)C(=O)O)c1` (some centres unmarked) [Compound 44], the EC50 with RKN cells is at least 1000 µM. In addition, the IC50 at human recombinant GCL is at most 20 µM.

Turning to `Cc1ccc(-c2nn[nH]n2)cc1CCS(=N)(=O)CC[C@H](N)C(=O)O` (some centres unmarked) [Compound 45], in the experiment on RKN cells, the EC50 is at least 1000 µM. Besides, at human recombinant GCL, the IC50 was at most 20 µM.

Consider `N=S(=O)(CC[C@H](N)C(=O)O)C[C@H](O)c1ccccc1` (some centres unmarked) [Compound 46], for which, in the experiment on RKN cells, the EC50 was at least 1000 µM. The IC50 at human recombinant GCL was 20 to 2000 µM.

Regarding `CCC(CS(=N)(=O)CC[C@H](N)C(=O)O)c1ccccc1C(F)(F)F` (some centres unmarked) [Compound 47], the EC50 in the experiment with RKN cells was at least 1000 µM. Also, the IC50 on human recombinant GCL was above 2000 µM.

Take `N=S(=O)(CCc1cccs1)CC[C@H](N)C(=O)O` (some centres unmarked) [Compound 48]: the EC50 with RKN cells is at least 1000 µM. The IC50 on human recombinant GCL was at most 20 µM.

For the compound `CC(C)(CCS(=N)(=O)CC[C@H](N)C(=O)O)c1ccccc1` (stereo partly drawn) [Compound 49, (2S)-2-amino-4-(3-methyl-3-phenylbutylsulfonimidoyl)butanoic acid], the EC50 in the experiment with RKN cells is at least 1000 µM. Further, the IC50 at human recombinant GCL was in the range of 20 to 2000 µM.

With `N=S(=O)(CCCc1ccccc1)CC[C@H](N)C(=O)O` (some centres unmarked) [Compound 51], in the experiment on RKN cells, the EC50 is at least 1000 µM. Besides, the IC50 on human recombinant GCL fell in the range of 20 to 2000 µM.

Turning to `N=S(=O)(CCCCc1ccccc1)CC[C@H](N)C(=O)O` (some centres unmarked) [Compound 52], the EC50 in the experiment with RKN cells was at least 1000 µM. The IC50 at human recombinant GCL lay in the range of 20 to 2000 µM.

In the case of `N=S(=O)(CCC(c1ccccc1)C(F)(F)F)CC[C@H](N)C(=O)O` (some centres unmarked) [Compound 53], the EC50 in the experiment with RKN cells is below 1000 µM. The IC50 on human recombinant GCL lay in the range of 20 to 2000 µM.

For `N=S(=O)(CC[C@H](N)C(=O)O)CC[C@H](O)c1ccccc1` (some centres unmarked) [Compound 54], the EC50 in the experiment on RKN cells was at least 1000 µM. The concentration for half-maximal inhibition (IC50) at human recombinant GCL lay within 20 to 2000 µM.

As to `N=S(=O)(CCC(c1ccccc1)c1ccccc1)CC[C@H](N)C(=O)O` (some centres unmarked) [Compound 55], in the experiment on RKN cells, the EC50 was at least 1000 µM. The IC50 at human recombinant GCL was 20 to 2000 µM.

Turning to `Cc1ccc(C(C)(C)CCS(=N)(=O)CC[C@H](N)C(=O)O)cc1` (some centres unmarked) [Compound 56], the concentration for a half-maximal effect (EC50) with RKN cells was at least 1000 µM. The IC50 on human recombinant GCL fell in the range of 20 to 2000 µM.

For the compound `Cc1cccc(C(C)(C)CCS(=N)(=O)CC[C@H](N)C(=O)O)c1` (some centres unmarked) [Compound 57], the EC50 with RKN cells is at least 1000 µM. Besides, on human recombinant GCL, the IC50 fell in the range of 20 to 2000 µM.
